Each block holds one molecule with its values, some of them ahead of it.
Target: Protease (Human immunodeficiency virus 1, UniProt Q9YQ12)
Experiment: Inhibition of HIV1 protease expressed in Escherichia coli using Abz-Ala-Arg-Val-Nle-Tyr(NO2)-Glu-Ala-Nle-NH2 peptide as substrate by FRET assay

Protease, sequence (Q9YQ12 whole entry): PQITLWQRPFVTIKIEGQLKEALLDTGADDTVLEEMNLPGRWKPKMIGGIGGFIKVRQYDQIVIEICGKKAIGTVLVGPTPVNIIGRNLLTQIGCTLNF

Structure (SMILES): CCCCCC(=O)O[C@H]1CC[C@]2(C)[C@H]3CC=C4[C@@H]5CC(C)(C)CC[C@]5(C(=O)NCCCC(=O)N[C@H](C(=O)O)C(C)C)CC[C@@]4(C)[C@]3(C)CC[C@H]2C1(C)C
- IC50: > 50 µM

Structure (SMILES): CCCCCC(=O)O[C@H]1CC[C@]2(C)[C@H]3CC=C4[C@@H]5CC(C)(C)CC[C@]5(C(=O)NCCCC(=O)O)CC[C@@]4(C)[C@]3(C)CC[C@H]2C1(C)C
- IC50: > 50 µM

Structure (SMILES): CCCC(=O)O[C@H]1CC[C@]2(C)[C@H]3CC=C4[C@@H]5CC(C)(C)CC[C@]5(C(=O)NCCCC(=O)NCC(=O)O)CC[C@@]4(C)[C@]3(C)CC[C@H]2C1(C)C
- IC50: > 50 µM

Structure (SMILES): CC1(C)CC[C@]2(C(=O)NCCCCCCCCCCC(=O)NCC(=O)O)CC[C@]3(C)C(=CC[C@@H]4[C@@]5(C)CC[C@H](OC(=O)CCC(=O)O)C(C)(C)[C@@H]5CC[C@]43C)[C@@H]2C1
- IC50: > 50 µM

Structure (SMILES): CC(C)[C@H](NC(=O)CCCCCCCCCCNC(=O)[C@]12CCC(C)(C)C[C@H]1C1=CC[C@@H]3[C@@]4(C)CC[C@H](OC(=O)CCCC(=O)O)C(C)(C)[C@@H]4CC[C@@]3(C)[C@]1(C)CC2)C(=O)O
- IC50: > 50 µM

Structure (SMILES): CCCCCCCCCCCC(=O)O[C@H]1CC[C@]2(C)[C@H]3CC=C4[C@@H]5CC(C)(C)CC[C@]5(C(=O)NCCCC(=O)N[C@@H](C)C(=O)O)CC[C@@]4(C)[C@]3(C)CC[C@H]2C1(C)C
- IC50: > 50 µM

Structure (SMILES): CCCC(=O)O[C@H]1CC[C@]2(C)[C@H]3CC=C4[C@@H]5CC(C)(C)CC[C@]5(C(=O)NCCCC(=O)O)CC[C@@]4(C)[C@]3(C)CC[C@H]2C1(C)C
- IC50: > 50 µM

Structure (SMILES): CC(=O)O[C@H]1CC[C@]2(C)[C@H]3CC=C4[C@@H]5CC(C)(C)CC[C@]5(C(=O)NCCCCCCCCCCC(=O)NCC(=O)O)CC[C@@]4(C)[C@]3(C)CC[C@H]2C1(C)C
- IC50: > 50 µM

Structure (SMILES): CC1(C)CC[C@]2(C(=O)NCCCCCCCCCCC(=O)O)CC[C@]3(C)C(=CC[C@@H]4[C@@]5(C)CC[C@H](OC(=O)CCCC(=O)O)C(C)(C)[C@@H]5CC[C@]43C)[C@@H]2C1
- IC50: > 50 µM

Structure (SMILES): CC(C)(CC(=O)O)CC(=O)O[C@H]1CC[C@]2(C)[C@H]3CC=C4[C@@H]5CC(C)(C)CC[C@]5(C(=O)NCCCC(=O)NCC(=O)O)CC[C@@]4(C)[C@]3(C)CC[C@H]2C1(C)C
- IC50: > 50 µM

Structure (SMILES): CCCCCC(=O)O[C@H]1CC[C@]2(C)[C@H]3CC=C4[C@@H]5CC(C)(C)CC[C@]5(C(=O)NCCCCCCCCCCC(=O)NCC(=O)O)CC[C@@]4(C)[C@]3(C)CC[C@H]2C1(C)C
- IC50: > 50 µM

Structure (SMILES): CC1(C)CC[C@]2(C(=O)NCCCCCC(=O)NCC(=O)O)CC[C@]3(C)C(=CC[C@@H]4[C@@]5(C)CC[C@H](OC(=O)CCCC(=O)O)C(C)(C)[C@@H]5CC[C@]43C)[C@@H]2C1
- IC50: > 50 µM

Structure (SMILES): CCCCCCCCCCCC(=O)O[C@H]1CC[C@]2(C)[C@H]3CC=C4[C@@H]5CC(C)(C)CC[C@]5(C(=O)NCCCCCCCCCCC(=O)N[C@H](C(=O)O)C(C)C)CC[C@@]4(C)[C@]3(C)CC[C@H]2C1(C)C
- IC50: > 50 µM

Structure (SMILES): CCCC(=O)O[C@H]1CC[C@]2(C)[C@H]3CC=C4[C@@H]5CC(C)(C)CC[C@]5(C(=O)NCCCCCCCCCCC(=O)N[C@@H](C)C(=O)O)CC[C@@]4(C)[C@]3(C)CC[C@H]2C1(C)C
- IC50: > 50 µM

Structure (SMILES): CCCC(=O)O[C@H]1CC[C@]2(C)[C@H]3CC=C4[C@@H]5CC(C)(C)CC[C@]5(C(=O)NCCCC(=O)N[C@@H](C)C(=O)O)CC[C@@]4(C)[C@]3(C)CC[C@H]2C1(C)C
- IC50: > 50 µM

Structure (SMILES): CCCCCCCCCCCC(=O)O[C@H]1CC[C@]2(C)[C@H]3CC=C4[C@@H]5CC(C)(C)CC[C@]5(C(=O)NCCCC(=O)NCC(=O)O)CC[C@@]4(C)[C@]3(C)CC[C@H]2C1(C)C
- IC50: > 50 µM

Structure (SMILES): CCCCCCCCCCCC(=O)O[C@H]1CC[C@]2(C)[C@H]3CC=C4[C@@H]5CC(C)(C)CC[C@]5(C(=O)NCCCCCC(=O)NCC(=O)O)CC[C@@]4(C)[C@]3(C)CC[C@H]2C1(C)C
- IC50: > 50 µM

Structure (SMILES): CCC(=O)O[C@H]1CC[C@]2(C)[C@H]3CC=C4[C@@H]5CC(C)(C)CC[C@]5(C(=O)NCCCC(=O)NCC(=O)O)CC[C@@]4(C)[C@]3(C)CC[C@H]2C1(C)C
- IC50: > 50 µM

Structure (SMILES): CCC(=O)O[C@H]1CC[C@]2(C)[C@H]3CC=C4[C@@H]5CC(C)(C)CC[C@]5(C(=O)NCCCCCCCCCCC(=O)N[C@@H](C)C(=O)O)CC[C@@]4(C)[C@]3(C)CC[C@H]2C1(C)C
- IC50: > 50 µM

Structure (SMILES): CC(=O)O[C@H]1CC[C@]2(C)[C@H]3CC=C4[C@@H]5CC(C)(C)CC[C@]5(C(=O)NCCCCCCCCCCC(=O)O)CC[C@@]4(C)[C@]3(C)CC[C@H]2C1(C)C
- IC50: > 50 µM

Structure (SMILES): C[C@H](NC(=O)CCCCCNC(=O)[C@]12CCC(C)(C)C[C@H]1C1=CC[C@@H]3[C@@]4(C)CC[C@H](OC(=O)c5ccccc5)C(C)(C)[C@@H]4CC[C@@]3(C)[C@]1(C)CC2)C(=O)O
- IC50: > 50 µM

Structure (SMILES): CCCCCC(=O)O[C@H]1CC[C@]2(C)[C@H]3CC=C4[C@@H]5CC(C)(C)CC[C@]5(C(=O)NCCCCCC(=O)N[C@H](C(=O)O)C(C)C)CC[C@@]4(C)[C@]3(C)CC[C@H]2C1(C)C
- IC50: > 50 µM

Structure (SMILES): CCCC(=O)O[C@H]1CC[C@]2(C)[C@H]3CC=C4[C@@H]5CC(C)(C)CC[C@]5(C(=O)NCCCCCC(=O)O)CC[C@@]4(C)[C@]3(C)CC[C@H]2C1(C)C
- IC50: > 50 µM

Structure (SMILES): CC(=O)O[C@H]1CC[C@]2(C)[C@H]3CC=C4[C@@H]5CC(C)(C)CC[C@]5(C(=O)NCCCCCCCCCCC(=O)N[C@@H](C)C(=O)O)CC[C@@]4(C)[C@]3(C)CC[C@H]2C1(C)C
- IC50: > 50 µM

Structure (SMILES): CCCCCC(=O)O[C@H]1CC[C@]2(C)[C@H]3CC=C4[C@@H]5CC(C)(C)CC[C@]5(C(=O)NCCCCCCCCCCC(=O)N[C@@H](C)C(=O)O)CC[C@@]4(C)[C@]3(C)CC[C@H]2C1(C)C
- IC50: > 50 µM

Structure (SMILES): CCCC(=O)O[C@H]1CC[C@]2(C)[C@H]3CC=C4[C@@H]5CC(C)(C)CC[C@]5(C(=O)NCCCCCC(=O)NCC(=O)O)CC[C@@]4(C)[C@]3(C)CC[C@H]2C1(C)C
- IC50: > 50 µM

Structure (SMILES): CCCC(=O)O[C@H]1CC[C@]2(C)[C@H]3CC=C4[C@@H]5CC(C)(C)CC[C@]5(C(=O)NCCCCCCCCCCC(=O)NCC(=O)O)CC[C@@]4(C)[C@]3(C)CC[C@H]2C1(C)C
- IC50: > 50 µM

Structure (SMILES): CC1(C)CC[C@]2(C(=O)NCCCCCC(=O)NCC(=O)O)CC[C@]3(C)C(=CC[C@@H]4[C@@]5(C)CC[C@H](OC(=O)c6ccccc6)C(C)(C)[C@@H]5CC[C@]43C)[C@@H]2C1
- IC50: > 50 µM

Structure (SMILES): CC1(C)CC[C@]2(C(=O)NCCCC(=O)NCC(=O)O)CC[C@]3(C)C(=CC[C@@H]4[C@@]5(C)CC[C@H](OC(=O)CCCC(=O)O)C(C)(C)[C@@H]5CC[C@]43C)[C@@H]2C1
- IC50: > 50 µM

Structure (SMILES): CC(=O)O[C@H]1CC[C@]2(C)[C@H]3CC=C4[C@@H]5CC(C)(C)CC[C@]5(C(=O)NCCCC(=O)N[C@@H](C)C(=O)O)CC[C@@]4(C)[C@]3(C)CC[C@H]2C1(C)C
- IC50: > 50 µM

Structure (SMILES): CCCCCC(=O)O[C@H]1CC[C@]2(C)[C@H]3CC=C4[C@@H]5CC(C)(C)CC[C@]5(C(=O)NCCCC(=O)N[C@@H](C)C(=O)O)CC[C@@]4(C)[C@]3(C)CC[C@H]2C1(C)C
- IC50: > 50 µM

Next, values leading:

- IC50: > 50 µM
Structure (SMILES): C[C@H](NC(=O)CCCCCCCCCCNC(=O)[C@]12CCC(C)(C)C[C@H]1C1=CC[C@@H]3[C@@]4(C)CC[C@H](OC(=O)CCCC(=O)O)C(C)(C)[C@@H]4CC[C@@]3(C)[C@]1(C)CC2)C(=O)O

- IC50: 12.4 µM
Structure (SMILES): CC(C)(CC(=O)O)CC(=O)O[C@H]1CC[C@]2(C)[C@H]3CC=C4[C@@H]5CC(C)(C)CC[C@]5(C(=O)NCCCCCC(=O)O)CC[C@@]4(C)[C@]3(C)CC[C@H]2C1(C)C

- IC50: 38.8 µM
Structure (SMILES): C[C@H](NC(=O)CCCCCNC(=O)[C@]12CCC(C)(C)C[C@H]1C1=CC[C@@H]3[C@@]4(C)CC[C@H](OC(=O)CCCC(=O)O)C(C)(C)[C@@H]4CC[C@@]3(C)[C@]1(C)CC2)C(=O)O

- IC50: 40 µM
Structure (SMILES): CCCC(=O)O[C@H]1CC[C@]2(C)[C@H]3CC=C4[C@@H]5CC(C)(C)CC[C@]5(C(=O)NCCCCCC(=O)N[C@@H](C)C(=O)O)CC[C@@]4(C)[C@]3(C)CC[C@H]2C1(C)C

- IC50: 40.2 µM
Structure (SMILES): C[C@H](NC(=O)CCCCCNC(=O)[C@]12CCC(C)(C)C[C@H]1C1=CC[C@@H]3[C@@]4(C)CC[C@H](OC(=O)CCC(=O)O)C(C)(C)[C@@H]4CC[C@@]3(C)[C@]1(C)CC2)C(=O)O

- IC50: 41.5 µM
Structure (SMILES): CC(C)[C@H](NC(=O)CCCNC(=O)[C@]12CCC(C)(C)C[C@H]1C1=CC[C@@H]3[C@@]4(C)CC[C@H](OC(=O)CCC(=O)O)C(C)(C)[C@@H]4CC[C@@]3(C)[C@]1(C)CC2)C(=O)O

- IC50: 33.3 µM
Structure (SMILES): CC(C)(CC(=O)O)CC(=O)O[C@H]1CC[C@]2(C)[C@H]3CC=C4[C@@H]5CC(C)(C)CC[C@]5(C(=O)NCCCC(=O)O)CC[C@@]4(C)[C@]3(C)CC[C@H]2C1(C)C

- IC50: 31 µM
Structure (SMILES): CCC(=O)O[C@H]1CC[C@]2(C)[C@H]3CC=C4[C@@H]5CC(C)(C)CC[C@]5(C(=O)NCCCCCC(=O)N[C@@H](C)C(=O)O)CC[C@@]4(C)[C@]3(C)CC[C@H]2C1(C)C

- IC50: 23.2 µM
Structure (SMILES): CC(C)[C@H](NC(=O)CCCCCNC(=O)[C@]12CCC(C)(C)C[C@H]1C1=CC[C@@H]3[C@@]4(C)CC[C@H](OC(=O)CC(C)(C)CC(=O)O)C(C)(C)[C@@H]4CC[C@@]3(C)[C@]1(C)CC2)C(=O)O

- IC50: 2.2 µM
Structure (SMILES): CC1(C)CC[C@]2(C(=O)NCCCC(=O)NCC(=O)O)CC[C@]3(C)C(=CC[C@@H]4[C@@]5(C)CC[C@H](OC(=O)c6ccccc6C(=O)O)C(C)(C)[C@@H]5CC[C@]43C)[C@@H]2C1

- IC50: 6.6 µM
Structure (SMILES): C[C@H](NC(=O)CCCNC(=O)[C@]12CCC(C)(C)C[C@H]1C1=CC[C@@H]3[C@@]4(C)CC[C@H](OC(=O)CCCC(=O)O)C(C)(C)[C@@H]4CC[C@@]3(C)[C@]1(C)CC2)C(=O)O

- IC50: 46.3 µM
Structure (SMILES): CC(C)[C@H](NC(=O)CCCNC(=O)[C@]12CCC(C)(C)C[C@H]1C1=CC[C@@H]3[C@@]4(C)CC[C@H](OC(=O)CC(C)(C)CC(=O)O)C(C)(C)[C@@H]4CC[C@@]3(C)[C@]1(C)CC2)C(=O)O

- IC50: 0.59 µM
Structure (SMILES): CC(C)[C@H](NC(=O)CCCCCNC(=O)[C@]12CCC(C)(C)C[C@H]1C1=CC[C@@H]3[C@@]4(C)CC[C@H](OC(=O)c5ccccc5C(=O)O)C(C)(C)[C@@H]4CC[C@@]3(C)[C@]1(C)CC2)C(=O)O

- IC50: 1 µM
Structure (SMILES): CC1(C)CC[C@]2(C(=O)NCCCCCC(=O)O)CC[C@]3(C)C(=CC[C@@H]4[C@@]5(C)CC[C@H](OC(=O)CCCC(=O)O)C(C)(C)[C@@H]5CC[C@]43C)[C@@H]2C1
